Entries after “also recorded” stand apart in the source; their conditions may differ. Read-outs that look alike come from different tables or passages of the source.
What was measured:
[1] = cited from earlier work; for B/P (nonclinical), percentage of brain exposure relative to plasma: mice, literature
P-gp/BCRP = details: literature, cited from earlier work
[2] = tested on: patients who harbored a BRAF, NRAS, or KRAS mutation; details: cited from earlier work
[3] = healthy subjects; cited from earlier work
[4] = concentration-independent; cited from earlier work
[5] = tested on: human tumor xenograft models; details: highest doses tested; cited from earlier work
BCRP (ABCG2) [6] = target: T1, BCRP (ABCG2) (Homo sapiens, UniProt Q9UNQ0); experiment: Vesicular transport inhibition assay; format: in vitro ADME; details: BCRP-mediated E3S accumulation
T1 construct: expressed by SOLVO Biotechnology in mammalian (K and M) cells by chemical selection; purchased SOLVO Biotechnology; host or cells: mammalian (K and M) cells, overexpression by chemical selection
T1 sequence (Q9UNQ0 1-655): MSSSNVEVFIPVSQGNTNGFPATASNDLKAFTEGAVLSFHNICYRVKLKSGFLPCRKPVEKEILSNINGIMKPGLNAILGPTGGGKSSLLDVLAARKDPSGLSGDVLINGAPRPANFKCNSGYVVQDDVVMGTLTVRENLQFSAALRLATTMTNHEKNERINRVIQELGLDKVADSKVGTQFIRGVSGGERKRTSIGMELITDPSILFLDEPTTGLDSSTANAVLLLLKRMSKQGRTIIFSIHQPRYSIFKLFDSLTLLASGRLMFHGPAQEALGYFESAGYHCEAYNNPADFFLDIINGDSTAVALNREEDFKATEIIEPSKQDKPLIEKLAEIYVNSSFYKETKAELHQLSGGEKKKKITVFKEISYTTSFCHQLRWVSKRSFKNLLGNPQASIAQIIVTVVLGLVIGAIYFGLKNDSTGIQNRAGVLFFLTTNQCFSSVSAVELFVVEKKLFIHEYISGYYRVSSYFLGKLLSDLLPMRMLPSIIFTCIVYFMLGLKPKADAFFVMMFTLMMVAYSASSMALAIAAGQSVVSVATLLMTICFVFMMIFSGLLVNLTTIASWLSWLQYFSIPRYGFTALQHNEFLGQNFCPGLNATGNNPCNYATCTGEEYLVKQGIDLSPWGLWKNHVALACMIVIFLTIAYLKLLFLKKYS
Experimental: (§1) Stock solutions of belvarafenib 2HCl (10 mM, 1.33 mM, 1 mM and 0.1 mM) were prepared in DMSO. Serial dilutions (7-step, 3-fold) were prepared in DMSO, and used as the test solutions in the inhibition assays (100-fold dilution). The dilution factor in substrate experiments was 100-fold.
(§2) Instruments used for detection include a Thermo Scientific Dionex UltiMate 3000 series UHPLC (Thermo Scientific, San Jose, CA) with a Thermo Scientific TSQ Quantum Access Max triple quadrupole MS; a Perkin Elmer MicroBeta2liquid scintillation counter (Perkin Elmer, Waltham MA) and a BMG Labtech FluoStar Omega multifunctional microplate reader (BMG Labtech, Offenburg, Germany).
(§3) Vesicular transport assays were performed with inside-out membrane vesicles prepared from cells overexpressing human ABC transporters. The transporter has been expressed by SOLVO Biotechnology in mammalian (K and M) cells by chemical selection.
(§4) Parameters of the vesicular transport assays are listed in Table 6 where: “BCRP” refers to breast cancer resistance protein; “MDR1” refers to multidrug resistance protein 1; “E3S” refers to Estrone-3-sulfate; and “NMQ” refers to N-methyl quinidine.
(§5) Belvarafenib 2HCl was incubated with membrane vesicle preparations (total protein: 50 μg/well for MDR1, and 25 µg/well for BCRP) and the probe substrate. Incubations were carried out in the presence of 4 mM ATP or AMP to distinguish between transporter-mediated uptake and passive diffusion into the vesicles. Belvarafenib 2HCl was added to the reaction mixture in 0.75 μL of solvent ([…] of the final incubation volume). Reaction mixtures were pre-incubated for 15 minutes at 37±1° C. (or 32±1° C. for BCRP). Reactions were initiated by the addition of 25 μL of 12 mM MgATP (or 12 mM AMP in assay buffer as a background control), preincubated separately. Reactions were quenched by the addition of 200 μL of ice-cold washing buffer and immediate filtration via glass fiber filters mounted to a 96-well plate (filter plate). The filters were washed (5×200 μL of ice-cold washing buffer), dried and the amount of substrate inside the filtered vesicles was determined by liquid scintillation counting.
(§6) The controls were as follows. Incubation with AMP provided background activity values for all data points. Incubation with probe substrate (solvent only) provided 100% activity values. A reference inhibitor served as positive control for inhibition.
(§7) For all wells the amount of the translocated probe substrate was determined in cpm. Relative activities were calculated using the following equation: Relative Activity %=(A−B)/(C−D)*100. A is the amount of translocated substrate in the presence of TA and ATP. B is the amount of translocated substrate in the presence of TA and AMP. C is the amount of translocated substrate in the presence of solvent and ATP. D is the amount of translocated substrate in the presence of solvent and AMP.
(§8) Microsoft Excel 2010 (Microsoft Corporation, Redmond, WA) was used for basic data processing and GraphPad Prism 5.0 (GraphPad Software Inc., San Diego, CA) was used for curve fitting and determination of reaction parameters. In vesicular transport inhibition assays, the IC50 (μM) was calculated, where applicable. IC50 was defined as the concentration of TA required to inhibit maximal activity by 50%. IC50 values were derived from a four parametric logistic equation [log(inhibitor) vs. response−variable slope]; the curve was fitted to the relative activity vs. TA concentration plot using non-linear regression.

MDR1 (ABCB1/P-gp) [7] = target: T2, MDR1 (ABCB1/P-gp) (Homo sapiens, UniProt P08183); experiment: Vesicular transport inhibition assay; format: in vitro ADME; details: MDR1-mediated NMQ accumulation
T2 construct: expressed by SOLVO Biotechnology in mammalian (K and M) cells by chemical selection; purchased SOLVO Biotechnology; host or cells: mammalian (K and M) cells, overexpression by chemical selection
T2 sequence (P08183 whole entry): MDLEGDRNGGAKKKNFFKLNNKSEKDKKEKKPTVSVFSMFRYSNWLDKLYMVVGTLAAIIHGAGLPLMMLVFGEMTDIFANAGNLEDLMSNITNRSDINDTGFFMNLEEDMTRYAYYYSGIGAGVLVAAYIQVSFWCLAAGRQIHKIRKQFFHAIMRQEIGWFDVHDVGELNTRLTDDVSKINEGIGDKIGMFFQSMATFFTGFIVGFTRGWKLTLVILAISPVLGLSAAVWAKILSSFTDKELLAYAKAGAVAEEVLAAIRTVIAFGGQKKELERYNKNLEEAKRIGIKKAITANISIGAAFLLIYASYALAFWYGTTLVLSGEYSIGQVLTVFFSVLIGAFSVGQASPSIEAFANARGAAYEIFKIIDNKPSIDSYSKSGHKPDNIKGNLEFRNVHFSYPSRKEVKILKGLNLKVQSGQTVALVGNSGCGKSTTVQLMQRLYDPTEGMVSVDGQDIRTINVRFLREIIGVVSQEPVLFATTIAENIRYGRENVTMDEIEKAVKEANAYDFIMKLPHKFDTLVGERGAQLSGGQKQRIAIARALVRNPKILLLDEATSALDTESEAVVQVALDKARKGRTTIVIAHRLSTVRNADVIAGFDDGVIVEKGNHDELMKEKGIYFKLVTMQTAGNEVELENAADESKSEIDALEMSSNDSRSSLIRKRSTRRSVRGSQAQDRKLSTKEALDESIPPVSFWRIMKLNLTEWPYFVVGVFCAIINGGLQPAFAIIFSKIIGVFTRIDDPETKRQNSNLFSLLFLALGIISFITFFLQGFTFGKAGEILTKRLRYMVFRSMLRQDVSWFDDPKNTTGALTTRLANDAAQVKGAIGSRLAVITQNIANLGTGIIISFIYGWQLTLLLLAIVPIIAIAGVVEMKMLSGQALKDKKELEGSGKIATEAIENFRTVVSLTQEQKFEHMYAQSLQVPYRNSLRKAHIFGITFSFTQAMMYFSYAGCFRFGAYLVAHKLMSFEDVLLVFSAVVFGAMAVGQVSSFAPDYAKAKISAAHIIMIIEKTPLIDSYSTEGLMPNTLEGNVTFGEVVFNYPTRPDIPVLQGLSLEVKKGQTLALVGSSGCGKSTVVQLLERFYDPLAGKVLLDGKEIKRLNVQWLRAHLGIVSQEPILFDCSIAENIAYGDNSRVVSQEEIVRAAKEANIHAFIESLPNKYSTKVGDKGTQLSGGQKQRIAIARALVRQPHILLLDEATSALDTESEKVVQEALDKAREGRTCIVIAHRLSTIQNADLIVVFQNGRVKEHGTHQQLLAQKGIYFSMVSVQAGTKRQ
Experimental: as §1, §2, §3, §4, §5, §6, §7, §8

BCRP (ABCG2) [8] = target: T1, BCRP (ABCG2); experiment: Vesicular transport substrate assay; format: in vitro ADME
Experimental: as §1, §2, §3
(§9) Experimental method for vesicular transport substrate assay. The uptake of belvarafenib 2HCl into membrane vesicles was determined using inside-out membrane vesicles (total protein: 50 μg/well for MDR1, or 25 μg/well for BCRP) prepared from cells overexpressing BCRP or MDR1 ABC transporters as well as from control cells. Two incubation time points (2 and 20 min) and two concentrations (1 and 10 μM) of belvarafenib 2HCl were tested in the presence of ATP or AMP, to determine whether belvarafenib 2HCl is actively transported into the vesicles. Reaction mixtures as well as start reagents (MgATP and AMP solutions) were pre-incubated for 15 minutes at 32° C. for BCRP, and 37° C. for MDR1 assay. Reactions were initiated by addition of the start reagent (MgATP or AMP) to the appropriate wells. Reactions were quenched by the addition of 200 μL of ice-cold washing buffer and immediate filtration via glass fiber filters mounted to a 96-well plate (filter plate). The filters were washed 5×200 μL of ice-cold washing buffer and dried. The amount of accumulated belvarafenib 2HCl retained inside the vesicles was determined by LC-MS/MS detection after washing the vesicles 2 times with 100 μL MeOH:H2O (2:1).
(§10) In the vesicular transport substrate assays, the ATP-dependent transport of the TA as well as the ATP-dependent fold accumulation was calculated for each concentration and time point using the following equation, in both the transporter-containing and control vesicles:
(§11) ATP−dependent transport=nATP−NAMP Fold accumulation=nATP/nAMP
(§12) nATP is the amount of translocated TA in the presence of 4 mM ATP, in pmol/mg. nAMP is the amount of translocated TA in the presence of 4 mM AMP, in pmol/m. […]

MDR1 (ABCB1/P-gp) [9] = target: T2, MDR1 (ABCB1/P-gp); experiment: Vesicular transport substrate assay; format: in vitro ADME
Experimental: as §1, §2, §3, §9, §10, §11, §12

[10] = Stage III of Study MEK4592g, 18 patients
[11] = cobimetinib single agent, Study MEK4592g

## O=C(c1ccc(F)c(F)c1Nc1ccc(I)cc1F)N1CC(O)([C@@H]2CCCCN2)C1 [Cobimetinib]
[1]
  B/P (nonclinical), percentage of brain exposure relative to plasma: 30%
P-gp/BCRP
  P-gp/BCRP efflux substrate?: Yes (P-gp)
[2]; [10]
  patients with SD as best overall response: 22.2%
  patients with unconfirmed tumor responses: 11.1%
[2]; [11]
  patients with confirmed partial response (PR): 6.2%
  patients with progressive disease: 41.2%
[3]
  food effect on pharmacokinetics, fed state compared with fasted state: not altered
[4]
  binding to plasma proteins: 95%
[5]
  tumor regression: up to 100%

## Cn1cnc2c(F)c(Nc3ccc(Br)cc3Cl)c(C(=O)NOCCO)cc21 [Selumetinib]
[1]
  B/P (nonclinical), percentage of brain exposure relative to plasma: 2%
P-gp/BCRP
  P-gp/BCRP efflux substrate?: Yes (P-gp + BCRP)

## CCCS(=O)(=O)Nc1ccc(F)c(C(=O)c2c[nH]c3ncc(-c4ccc(Cl)cc4)cc23)c1F [Vemurafenib]
[1]
  B/P (nonclinical), percentage of brain exposure relative to plasma: 0.4-1% ^
P-gp/BCRP
  P-gp/BCRP efflux substrate?: Yes (P-gp + BCRP)
P-gp/BCRP; listed as vemurafenib
  P-gp/BCRP efflux substrate?: is a P-gp and a BCRP efflux substrate

## CC(=O)Nc1cccc(-n2c(=O)n(C3CC3)c(=O)c3c(Nc4ccc(I)cc4F)n(C)c(=O)c(C)c32)c1 [Trametinib]
[1]
  B/P (nonclinical), percentage of brain exposure relative to plasma: 15%
P-gp/BCRP
  P-gp/BCRP efflux substrate?: Yes (P-gp + BCRP)

## COC(=O)N[C@@H](C)CNc1nccc(-c2cn(C(C)C)nc2-c2cc(Cl)cc(NS(C)(=O)=O)c2F)n1 [Encorafenib]
[1]; literature values
  brain to plasma ratio: about 0.004
[1]
  B/P (nonclinical), percentage of brain exposure relative to plasma: 0.4%
P-gp/BCRP
  P-gp/BCRP efflux substrate?: Yes (P-gp + BCRP)
P-gp/BCRP; listed as encorafenib
  P-gp/BCRP efflux substrate?: is a P-gp and a BCRP efflux substrate

## CC(C)(C)c1nc(-c2cccc(NS(=O)(=O)c3c(F)cccc3F)c2F)c(-c2ccnc(N)n2)s1 [Dabrafenib]
[1]
  B/P (nonclinical), percentage of brain exposure relative to plasma: 2-4%
P-gp/BCRP
  P-gp/BCRP efflux substrate?: Yes (P-gp + BCRP)
P-gp/BCRP; listed as dabrafenib
  P-gp/BCRP efflux substrate?: is a P-gp and a BCRP efflux substrate

## C[C@@H](NC(=O)c1ncnc(N)c1Cl)c1ncc(C(=O)Nc2cc(C(F)(F)F)c(Cl)cn2)s1 [DAY101]
[1]
  B/P (nonclinical), percentage of brain exposure relative to plasma: 20-34% ^
P-gp/BCRP
  P-gp/BCRP efflux substrate?: Yes (BCRP)

## Cc1ccc2c(Nc3cccc(Cl)c3F)nccc2c1NC(=O)c1csc2c(N)ncnc12 [belvarafenib 2HCl]
BCRP (ABCG2) [6]; 0.02-13.3 μM
  Maximum inhibition (% of control): 99.8%
BCRP (ABCG2) [6]; estimated, top of the curve constrained at 100%
  IC50: 0.011 µM
BCRP (ABCG2) [6]; human, probe estrone-3-sulfate (E3S), 0.02 μM, read-out: inhibition at the lowest investigated concentration
  inhibition at 0.02 µM: 70%
MDR1 (ABCB1/P-gp) [7]; estimated, bottom constrain (0%), inhibition did not reach 50%
  IC50: 29.6 µM
MDR1 (ABCB1/P-gp) [7]; human, probe N-methyl quinidine (NMQ), highest applied concentration (13.3 μM), read-out: Maximum inhibition (% of control)
  inhibition at 13.3 µM: 32%
BCRP (ABCG2) [8]; 1 and 10 μM, 2 and 20 min
  Maximum ATP dependent fold accumulation in transporter expressing vesicles: 1.51
BCRP (ABCG2) [8]; BCRP VT
  Substrate: probably not a substrate; also recorded: Unlikely
MDR1 (ABCB1/P-gp) [9]; 1 and 10 μM, 2 and 20 min
  Maximum ATP dependent fold accumulation in transporter expressing vesicles: 1.23
MDR1 (ABCB1/P-gp) [9]; MDR1 VT
  Substrate: probably not a substrate; also recorded: Unlikely
